Assay results published in patent US9856218B2, “Inhibitors of PRMT5 and methods of their use” (Ohio State Innovation Foundation, priority 2013, dated 2018).

Tests used:
[1] = molecular target: T1, affinity-purified hSWI/SNF associated Fl-PRMT7 (Homo sapiens, UniProt Q9NVM4); experiment: Histone methyltransferase assay, [3H]SAM; format: biochemical; details: FIG. 33A
T1 construct: made in house
Method: (§1) Histone methylation was performed in the presence of DMSO, and 1-40 μM inhibitor compounds. […] After 1.5 h incubation at 30° C., reaction mixtures were spotted on Whatman P-81 filter paper, washed five times with 10 mL of […] sodium carbonate buffer (pH 9.0) to remove unincorporated [3H]SAM, and methylated peptides were detected by scintillation counting.
as §1, with “HLCL-32, HLCL-10, HLCL-61 and HLCL-64.” for “inhibitor compounds.”, “After a” for “After”, “C.” for “C.,”, “[^3H]SAM,” for “[3H]SAM,”

recombinant PRMT1 = molecular target: T2, recombinant PRMT1 (Rattus norvegicus, UniProt Q63009); experiment: Histone methyltransferase assay, [3H]SAM; format: biochemical
T2 construct: purchased Millipore 14-474
T2 sequence (Q63009 whole entry): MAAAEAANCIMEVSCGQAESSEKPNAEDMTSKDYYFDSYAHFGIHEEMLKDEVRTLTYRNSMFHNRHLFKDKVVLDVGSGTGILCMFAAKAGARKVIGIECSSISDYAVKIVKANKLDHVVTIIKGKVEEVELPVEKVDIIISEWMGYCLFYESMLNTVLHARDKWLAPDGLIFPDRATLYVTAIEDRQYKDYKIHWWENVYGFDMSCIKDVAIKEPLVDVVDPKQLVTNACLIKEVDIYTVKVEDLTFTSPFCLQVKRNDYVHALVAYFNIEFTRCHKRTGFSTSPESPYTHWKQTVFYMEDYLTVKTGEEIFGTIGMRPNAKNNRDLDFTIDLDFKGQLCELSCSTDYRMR
Method: as §1
as §1, with “HLCL-32, HLCL-10, HLCL-61 and HLCL-64.” for “inhibitor compounds.”, “After a” for “After”, “C.” for “C.,”, “[^3H]SAM,” for “[3H]SAM,”

recombinant PRMT4 = molecular target: T3, recombinant PRMT4 (Mus musculus, UniProt Q9WVG6); experiment: Histone methyltransferase assay, [3H]SAM; format: biochemical; details: FIG. 33A
T3 construct: purchased Millipore 14-575
T3 sequence (Q9WVG6 whole entry): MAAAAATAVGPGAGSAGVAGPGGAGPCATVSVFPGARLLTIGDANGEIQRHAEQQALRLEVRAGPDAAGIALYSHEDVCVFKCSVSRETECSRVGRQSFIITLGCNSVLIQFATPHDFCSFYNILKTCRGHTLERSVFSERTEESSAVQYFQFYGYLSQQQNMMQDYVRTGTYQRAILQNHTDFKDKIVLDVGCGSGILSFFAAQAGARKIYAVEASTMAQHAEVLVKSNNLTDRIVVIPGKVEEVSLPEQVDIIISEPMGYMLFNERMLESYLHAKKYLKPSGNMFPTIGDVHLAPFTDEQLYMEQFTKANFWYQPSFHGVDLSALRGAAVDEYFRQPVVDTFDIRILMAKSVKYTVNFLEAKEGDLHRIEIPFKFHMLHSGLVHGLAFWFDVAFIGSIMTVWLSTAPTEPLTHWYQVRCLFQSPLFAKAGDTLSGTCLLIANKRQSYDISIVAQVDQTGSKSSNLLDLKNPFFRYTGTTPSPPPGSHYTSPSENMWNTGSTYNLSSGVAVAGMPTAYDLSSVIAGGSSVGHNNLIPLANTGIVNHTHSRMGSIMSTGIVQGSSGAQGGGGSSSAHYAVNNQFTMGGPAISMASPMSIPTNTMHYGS
Method: as §1
as §1, with “HLCL-32, HLCL-10, HLCL-61 and HLCL-64.” for “inhibitor compounds.”, “After a” for “After”, “C.” for “C.,”, “[^3H]SAM,” for “[3H]SAM,”

[2] = system: AML cell lines and blasts; experiment: Colony forming assay; format: cell-based; details: 100 nM, versus vehicle treated control cells
Method: Clonogenic assays were set up by plating 1×10^3 cell/mL in semi-solid methylcellulose medium (MethoCult, Stem Cell Technologies). Colonies were counted after 10-14 days using an inverted microscope. Growth inhibition assays were measured using a colorimetric MTS assay: 5×10^4 cells were plated in 100 μL final volume in a 96-well plate in the presence of different concentrations of C12 for 24, 48 and 72 hours at 37° C. Afterwards, 20 μL of the CellTiter 96W AQueous One Solution Reagent, which contains tetrazolium compound [3-(4,5-[…])-5-(3-carboxymethoxyphenyl)-2-(4-sulfophenyl)-2H-tetrazolium, inner salt; MTS] and an electron coupling reagent (phenazine ethosulfate; PES) (Promega, Madison Wis.), was added to each well. Within 1-4 hours of incubation at 37° C., the optical density at 490 and 690 nm was measured. Cell viability was calculated with respect to the control samples and reference background wavelength at 690 nm. At least three independent experiments were performed. Growth curve assays were done by counting live cells using Trypan blue exclusion and inverted microscope for >12 days after plating the cells in 1×10^5 concentrations.
PRMT5 inhibition by C12 was also effective in promoting apoptosis and differentiation.
Colonies were counted 10-14 days after plating and each treatment was carried out in triplicates.

[3] = system: FLT3 RNA and protein in MV4-11, THP-1 cells and FLT3-ITD patient samples; experiment: FLT3 RNA (qRT-PCR) and protein (western blotting) after PRMT5 inhibition; format: cell-based; details: MV4-11, THP-1, FLT3-ITD patient samples
Method: Whole cell lysates were prepared by suspending cell pellets in RIPA buffer for 20 min (1% NP-40, 0.1% SDS, 150 mM NaCl, 50 mM Tris, pH 8.0), then supplemented with 1× complete EDTA free protease inhibitor (Roche) and 1× PhosStop (Roche). Lysates were separated by 4-20% SDS-PAGE and transferred to PVDF membrane (GE Healthcare, Piscataway, N.J.). Membranes were blocked with 5% milk or BSA in 1×TBS with 0.1% Tween 20 for 1 hour at room temperature with shaking. […]
Total RNA was extracted using TriZol reagent (Invitrogen) and subjected to Reverse Transcription using SuperScript III reagents (Invitrogen). Quantitative Real-Time PCR was performed on resulting cDNA using commercially available TaqMan Gene Expression Assay primers and probes, and the 7900HT Fast Real-Time PCR System (Applied Biosystems). Mature microRNA levels were quantified using reverse transcription product made with TaqMan MicroRNA Reverse Transcription Kit (Life Technologies).
PRMT5 has been reported to interact with, and to be regulated via posttranslational phosphorylation by mutant constitutively active tyrosine kinase; JAK2V617F (Liu, F., et al. (2011) Cancer Cell 19, 283-294). […] To further confirm FLT3 downregulation following PRMT5 knockdown, kinase activity was measured by detecting phosphorylated STAT5 levels. […]

T1 sequence (Q9NVM4 whole entry): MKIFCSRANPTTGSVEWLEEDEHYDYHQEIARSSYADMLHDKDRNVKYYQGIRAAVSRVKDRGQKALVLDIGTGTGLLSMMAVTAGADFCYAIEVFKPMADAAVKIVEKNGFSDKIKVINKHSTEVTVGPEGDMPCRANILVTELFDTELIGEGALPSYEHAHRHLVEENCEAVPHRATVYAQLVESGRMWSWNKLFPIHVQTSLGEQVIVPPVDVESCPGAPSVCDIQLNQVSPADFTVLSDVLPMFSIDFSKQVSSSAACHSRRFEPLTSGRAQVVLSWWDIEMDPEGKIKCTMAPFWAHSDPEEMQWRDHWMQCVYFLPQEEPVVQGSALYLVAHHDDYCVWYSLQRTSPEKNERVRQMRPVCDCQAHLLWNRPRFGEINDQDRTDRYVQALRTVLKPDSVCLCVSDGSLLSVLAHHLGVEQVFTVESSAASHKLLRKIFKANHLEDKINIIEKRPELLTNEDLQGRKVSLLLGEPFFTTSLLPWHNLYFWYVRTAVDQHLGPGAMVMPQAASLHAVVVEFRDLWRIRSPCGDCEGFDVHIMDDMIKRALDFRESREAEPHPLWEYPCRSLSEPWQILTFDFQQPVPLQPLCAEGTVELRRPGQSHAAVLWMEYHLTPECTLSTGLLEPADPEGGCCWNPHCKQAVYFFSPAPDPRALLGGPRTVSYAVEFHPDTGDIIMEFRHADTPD

## CCn1c2ccccc2c2cc(CNCc3ccccc3OC)ccc21 [HLCL-61]
[1]
  effect on PRMT7 enzymatic activity: ineffectiveness
Recombinant PRMT1; 10 μM, FIG. 17B
  inhibition of PRMT1 enzyme: this non-specific activity is lost
Recombinant PRMT1; 20 μM and above, FIG. 17A
  inhibition of PRMT1 enzyme: non-specific inhibition
Recombinant PRMT1; FIG. 33A
  effect on PRMT1 enzymatic activity: ineffectiveness
Recombinant PRMT4
  effect on PRMT4 enzymatic activity: ineffectiveness
[2]
  colonies formed: Significantly fewer colonies
[3]
  wild-type or mutated FLT3 RNA and protein: significant downregulation
